Our source for the CC50 and EC50 values is patent publication US20250115620A1, “BRIDGED TRICYCLIC CARBAMOYLPYRIDONE COMPOUNDS AND USES THEREOF” (Gilead Sciences, Inc., priority 2022, published 2025).

Like-named read-outs stand apart in the source and are kept apart here.

The nature of one data set: in vitro. The settings on record: human, uninfected MT-4 cells.
The test system of a further data set is pLAI reporter virus. The data set is described as follows: microbe, parasite or virus in culture. Format: cell-based, HIV. The settings on record: Human immunodeficiency virus 1, MT4, 72 h.
The subject of the next data set is HIV-1 (IIIB). Kind of data set: microbe, parasite or virus in culture. The settings on record: Human immunodeficiency virus 1, IIIB, MT4, 120 h, HIV-1 (IIIB) in MT-4 cells, 5 days incubation, Cell Titer Glo; read-out: MT4 EC50. Format: cell-based.

Turning to `C[C@H]1CC[C@]2(CC(CCCCCl)=NO2)[C@H]2CN1C(=O)c1c(O)c(=O)c(C(=O)NCc3c(F)cc(F)cc3F)cn12` [Example 10, (3′S,5S,7′R)-3-(4-chlorobutyl)-12′-hydroxy-3′-methyl-1′,11′-dioxo-N-(2,4,6-trifluorobenzyl)-1′,4′,5′,11′-tetrahydro-3′H,4H,7′H-spiro[isoxazole-5,6′-[2,7]methanopyrido[1,2-a][1,4]diazonine]-10′-carboxamide], in “in vitro”, the CC50 at 5 days turned out to be 5860 nM. The EC50 turned out to be 5.5 nM in the data set on pLAI reporter virus (read-out: RLUC 50% HS EC50), 1 nM with pLAI reporter virus (read-out: RLUC CCM EC50) and 1.7 nM in the data set on HIV-1 (IIIB).

`C[C@H]1CC[C@@]2(OC[C@@H](Cc3ccccc3)O2)[C@H]2CN1C(=O)c1c(O)c(=O)c(C(=O)NCc3c(F)cc(F)cc3F)cn12` (single isomer, unassigned) [169 (peak 1)] registered a CC50 at 5 days in “in vitro” of 39000 nM. The EC50 in the data set with pLAI reporter virus (read-out: RLUC 50% HS EC50) is 10 nM; in the data set with pLAI reporter virus (read-out: RLUC CCM EC50), 1.4 nM; with HIV-1 (IIIB), 4.9 nM.

Consider `C[C@H]1CC[C@]2(Cc3ccccc3O2)[C@H]2CN1C(=O)c1c(O)c(=O)c(C(=O)NCc3c(F)cc(F)cc3F)cn12` [Example 143, (2S,3′S,7′R)-12′-hydroxy-3′-methyl-1′,11′-dioxo-N-(2,4,6-trifluorobenzyl)-1′,4′,5′,11′-tetrahydro-3H,3′H,7′H-spiro[benzofuran-2,6′-[2,7]methanopyrido[1,2-a][1,4]diazonine]-10′-carboxamide], for which, in “in vitro”, the CC50 at 5 days amounted to 24400 nM. Moreover, the EC50 was found to be 78.4 nM with pLAI reporter virus (read-out: RLUC 50% HS EC50), 0.1 nM in the data set on pLAI reporter virus (read-out: RLUC CCM EC50) and 1.4 nM in the data set with HIV-1 (IIIB).

On to `CC(C)C1=NO[C@@]2(CC[C@H](C)N3C[C@H]2n2cc(C(=O)NCc4ccc(F)cc4F)c(=O)c(O)c2C3=O)C1` [Example 7, (3′S,5S,7′R)—N-(2,4-difluorobenzyl)-12′-hydroxy-3-isopropyl-3′-methyl-1′,11′-dioxo-1′,4′,5′,11′-tetrahydro-3′H,4H,7′H-spiro[isoxazole-5,6′-[2,7]methanopyrido[1,2-a][1,4]diazonine]-10′-carboxamide], for which the CC50 at 5 days in the data set “in vitro” was 38200 nM. Besides, the EC50 turned out to be 1.6 nM in the data set with pLAI reporter virus (read-out: RLUC 50% HS EC50), 0.5 nM in the data set on pLAI reporter virus (read-out: RLUC CCM EC50) and 1.9 nM in the data set on HIV-1 (IIIB).

Consider `C[C@H]1CC[C@]2(CC(=O)N(Cc3ccc4ncsc4c3)O2)[C@H]2CN1C(=O)c1c(O)c(=O)c(C(=O)NCc3c(F)cc(F)cc3F)cn12` [Example 112, (3′S,5S,7′R)-2-(benzo[d]thiazol-6-ylmethyl)-12′-hydroxy-3′-methyl-1′,3,11′-trioxo-N-(2,4,6-trifluorobenzyl)-1′,4′,5′,11′-tetrahydro-3′H,7′H-spiro[isoxazolidine-5,6′-[2,7]methanopyrido[1,2-a][1,4]diazonine]-10′-carboxamide], for which the CC50 at 5 days in “in vitro” was not below 50000 nM. In addition, the 50% effective concentration (EC50) in the data set on pLAI reporter virus (read-out: RLUC 50% HS EC50) turned out to be 0.4 nM; in the data set with pLAI reporter virus (read-out: RLUC CCM EC50), 0.2 nM; in the data set on HIV-1 (IIIB), 0.7 nM.

For the molecule `C[C@H]1CC[C@]2(CC(C(F)F)=NO2)[C@H]2CN1C(=O)c1c(O)c(=O)c(C(=O)NCc3ccc(F)cc3F)cn12` [Example 21, (3′S,5S,7′R)—N-(2,4-difluorobenzyl)-3-(difluoromethyl)-12′-hydroxy-3′-methyl-1′,11′-dioxo-1′,4′,5′,11′-tetrahydro-3′H,4H,7′H-spiro[isoxazole-5,6′-[2,7]methanopyrido[1,2-a][1,4]diazonine]-10′-carboxamide], it took 29300 nM to reach half-maximal cytotoxicity in “in vitro” (CC50 at 5 days). Further, the values for the EC50 in the data set with pLAI reporter virus (read-out: RLUC 50% HS EC50), with pLAI reporter virus (read-out: RLUC CCM EC50) and in the data set with HIV-1 (IIIB) were 72.7 nM, 0.3 nM and 1.4 nM, respectively.

Molecule `C[C@H]1CC[C@]2(CC(C#CC(C)(C)S(C)(=O)=O)=NO2)[C@H]2CN1C(=O)c1c(O)c(=O)c(C(=O)NCc3c(F)cc(F)cc3F)cn12` [Example 79, (3′S,5S,7′R)-12′-hydroxy-3′-methyl-3-(3-methyl-3-(methylsulfonyl)but-1-yn-1-yl)-1′,11′-dioxo-N-(2,4,6-trifluorobenzyl)-1′,4′,5′,11′-tetrahydro-3′H,4H,7′H-spiro[isoxazole-5,6′-[2,7]methanopyrido[1,2-a][1,4]diazonine]-10′-carboxamide] showed a CC50 at 5 days in “in vitro” not below 50000 nM. For the same molecule, the figures for the EC50 with pLAI reporter virus (read-out: RLUC 50% HS EC50), in the data set with pLAI reporter virus (read-out: RLUC CCM EC50) and in the data set on HIV-1 (IIIB) were 1.4 nM, 1 nM and 4.8 nM, respectively.
